Laboratory results: the C3SDB collision cross section collection

Legend:
[1] = [M+H]+; instrument: TW
[2] = instrument: DT, stepped-field
[3] = instrument: DT, single field, calibrated with Agilent tune mix (Agilent)
[4] = instrument: TW, calibrated with phosphatidylcholines (ESI+) and phosphatidylethanolamines (ESI-)

## C[C@]12C=CC3=C4CCC(=O)C=C4CC[C@H]3[C@@H]1CC[C@@H]2O [17B-Trenbolone]
[1]
  collision cross section (N2): 163.3 Å²

## C[C@]12CC[C@H]3[C@@H](CCC4=CC(=O)CC[C@H]43)[C@@H]1CC[C@H]2O [17a-Nortestosterone]
[1]
  collision cross section (N2): 165.7 Å²

## CC12C=CC3=C4CCC(=O)C=C4CCC3C1CCC2O (stereo not given) [17a-Trenbolone]
[1]
  collision cross section (N2): 163.3 Å²

## CNC(=O)ON=CC(C)(C)S(C)=O (stereo not given) [Aldicarb sulfoxide]
[1]
  collision cross section (N2): 145.4 Å²

## CO/C=C(/C(=O)OC)c1ccccc1Oc1cc(Oc2ccccc2C#N)ncn1 [Azoxystrobin]
[1]
  collision cross section (N2): 195.75 Å²

## CC(C)(C)NCC(O)c1cc(Cl)c(N)c(Br)c1 (stereo not given) [Bromchlorbuterol]
[1]
  collision cross section (N2): 165.2 Å²

## C=CCOC(=O)C(C)(C)OC(=O)c1cc(-n2c(=O)cc(C(F)(F)F)n(C)c2=O)ccc1Cl [Butafenacil]
[1]
  collision cross section (N2): 208.59 Å²

## CC(C)NCC(O)COc1cccc2[nH]c3ccccc3c12 (stereo not given) [Carazolol]
[1]
  collision cross section (N2): 165.5 Å²

## COC(=O)Nc1nc2ccccc2[nH]1 [Carbendazim]
[1]
  collision cross section (N2): 134.94 Å²

## CON(C)C(=O)Nc1ccc(Br)c(Cl)c1 [Chlorbromuron]
[1]
  collision cross section (N2): 152.25 Å²

## COc1nc(C)nc(NC(=O)NS(=O)(=O)c2ccccc2Cl)n1 [Chlorsulfuron]
[1]
  collision cross section (N2): 175.29 Å²

## CC(C)NCC(O)c1ccc(N)c(C#N)c1 (stereo not given) [Cimaterol]
[1]
  collision cross section (N2): 155.4 Å²

## CCC(C)(C)NCC(O)c1cc(Cl)c(N)c(Cl)c1 (stereo not given) [Clenpenterol]
[1]
  collision cross section (N2): 165 Å²

## Clc1ccccc1-c1nnc(-c2ccccc2Cl)nn1 [Clofentezine]
[1]
  collision cross section (N2): 161.9 Å²

## Cc1cc(C2CC2)nc(Nc2ccccc2)n1 [Cyprodinil]
[1]
  collision cross section (N2): 152.07 Å²

## Nc1nc(N)nc(NC2CC2)n1 [Cyromazine]
[1]
  collision cross section (N2): 133.23 Å²

## Nc1ccc(S(=O)(=O)c2ccc(N)cc2)cc1 [Dapsone]
[1]
  collision cross section (N2): 149.9 Å²

## CCS(=O)(=O)CCSP(=O)(OC)OC [Demeton-S-methyl- sulfone]
[1]
  collision cross section (N2): 143.66 Å²

## CC(C)c1cc(Oc2ccccc2)cc(C(C)C)c1NC(=S)NC(C)(C)C [Diafenthiuron]
[1]
  collision cross section (N2): 199.75 Å²

## CC1COC(Cn2cncn2)(c2ccc(Oc3ccc(Cl)cc3)cc2Cl)O1 (stereo not given) [Difenoconazole]
[1]
  collision cross section (N2): 198.48 Å²

## Cc1ncc([N+](=O)[O-])n1C [Dimetridazole]
[1]
  collision cross section (N2): 116.4 Å²

## C=C1C[C@@]23CC[C@H]4[C@@](C)(CCC[C@@]4(C)C(=O)O[C@@H]4O[C@H](CO)[C@@H](O)[C@H](O)[C@H]4O)[C@@H]2CC[C@]1(O[C@@H]1O[C@H](CO)[C@@H](O)[C@H](O)[C@H]1O[C@@H]1O[C@@H](C)[C@H](O)[C@@H](O)[C@H]1O)C3 [Dulcoside A]
[1]
  collision cross section (N2): 270.75 Å²

## CSC1=N[C@@](C)(c2ccccc2)C(=O)N1Nc1ccccc1 [Fenamidone]
[1]
  collision cross section (N2): 171.15 Å²

## CC1(C(=O)Nc2ccc(O)c(Cl)c2Cl)CCCCC1 [Fenhexamid]
[1]
  collision cross section (N2): 164.82 Å²

## CC(Cc1ccc(C(C)(C)C)cc1)CN1CCCCC1 (stereo not given) [Fenpropidin]
[1]
  collision cross section (N2): 166.39 Å²

## CCCCOC(=O)[C@@H](C)Oc1ccc(Oc2ccc(C(F)(F)F)cn2)cc1 [Fluazafop-P-butyl]
[1]
  collision cross section (N2): 194.8 Å²

## O=C(NC(=O)c1c(F)cccc1F)Nc1ccc(Oc2ccc(C(F)(F)F)cc2Cl)cc1F [Flufenoxuron]
[1]
  collision cross section (N2): 204.46 Å²

## CC1CCc2cc(F)cc3c(=O)c(C(=O)O)cn1c23 (stereo not given) [Flumequine]
[1]
  collision cross section (N2): 147.6 Å²

## C[C@@H]1C[C@H]2[C@@H]3C[C@H](F)C4=CC(=O)C=C[C@]4(C)[C@@]3(F)[C@@H](O)C[C@]2(C)[C@@]1(O)C(=O)CO [Flumethasone]
[1]
  collision cross section (N2): 193.2 Å²

## OC(Cn1cncn1)(c1ccc(F)cc1)c1ccccc1F (stereo not given) [Flutriafol]
[1]
  collision cross section (N2): 163.97 Å²

## CNC(=O)Oc1cccc(N=CN(C)C)c1 [Formetanate]
[1]
  collision cross section (N2): 153.76 Å²

## CCOCCOC(=O)C(C)Oc1ccc(Oc2ncc(C(F)(F)F)cc2Cl)cc1 (stereo not given) [Haloxyfop-2-ethoxyethyl]
[1]
  collision cross section (N2): 193.53 Å²

## O=C(NC(=O)c1c(F)cccc1F)Nc1cc(Cl)c(OC(F)(F)C(F)F)c(Cl)c1 [Hexaflumuron]
[1]
  collision cross section (N2): 188.22 Å²

## Oc1ccc2nc(-c3cscn3)[nH]c2c1 [Hydroxythiabendazole]
[1]
  collision cross section (N2): 137.2 Å²

## COC(=O)N(C(=O)N1CO[C@@]2(C(=O)OC)Cc3cc(Cl)ccc3C2=N1)c1ccc(OC(F)(F)F)cc1 [Indoxacarb]
[1]
  collision cross section (N2): 207.03 Å²

## CC(C)c1ccc(NC(=O)N(C)C)cc1 [Isoproturon]
[1]
  collision cross section (N2): 150.75 Å²

## CCC(C)(CC)c1cc(NC(=O)c2c(OC)cccc2OC)on1 [Isoxaben]
[1]
  collision cross section (N2): 184.93 Å²

## CC(C(=O)O)c1cccc(C(=O)c2ccccc2)c1 (stereo not given) [Ketoprofen]
[1]
  collision cross section (N2): 155.4 Å²

## CCC[C@@H]1C[C@@H](C(=O)N[C@@H]([C@H]2O[C@H](SC)[C@H](O)[C@@H](O)[C@H]2O)[C@@H](C)O)N(C)C1 [Lincomycin]
[1]
  collision cross section (N2): 201.8 Å²

## O=C(NC(=O)c1c(F)cccc1F)Nc1cc(Cl)c(OC(F)(F)C(F)C(F)(F)F)cc1Cl (stereo not given) [Lufenuron]
[1]
  collision cross section (N2): 198.53 Å²

## CC(C)(C)NCC(O)c1cc(Cl)c(N)c(C(F)(F)F)c1 (stereo not given) [Mabuterol]
[1]
  collision cross section (N2): 168.4 Å²

## C#CCOc1ccc(CCNC(=O)C(OCC#C)c2ccc(Cl)cc2)cc1OC (stereo not given) [Mandipropamid]
[1]
  collision cross section (N2): 195.15 Å²

## Cc1cnc(/N=C(\O)C2=C(O)c3ccccc3S(=O)(=O)N2C)s1 [Meloxicam]
[1]
  collision cross section (N2): 174.9 Å²

## CC1(C)CCC(Cc2ccc(Cl)cc2)C1(O)Cn1cncn1 (stereo not given) [Metconazole]
[1]
  collision cross section (N2): 168.62 Å²

## CON(C)C(=O)Nc1ccc(Cl)cc1 [Monolinuron]
[1]
  collision cross section (N2): 142.9 Å²

## Cc1ccsc1/C=C/C1=NCCCN1C [Morantel]
[1]
  collision cross section (N2): 149.7 Å²

## CCn1cc(C(=O)O)c(=O)c2ccc(C)nc21 [Nalidixic acid]
[1]
  collision cross section (N2): 141.4 Å²

## CC(C)Oc1cc(-n2nc(C(C)(C)C)oc2=O)c(Cl)cc1Cl [Oxadiazon]
[1]
  collision cross section (N2): 182.17 Å²

## CCn1cc(C(=O)O)c(=O)c2cc3c(cc21)OCO3 [Oxolinic acid]
[1]
  collision cross section (N2): 147.8 Å²

## CN(C)[C@@H]1C(O)=C(C(N)=O)C(=O)[C@@]2(O)C(O)=C3C(=O)c4c(O)cccc4[C@@](C)(O)[C@H]3[C@H](O)[C@@H]12 [Oxytetracycline]
[1]
  collision cross section (N2): 202.3 Å²

## CCCCC/C=C\C/C=C\C/C=C\CCCCCCC(=O)O[C@H](COC(=O)CCCCCCC/C=C\CCCCCC)COP(=O)(O)OCCN [PE(36:4)]
[2]; [M+Na]+
  collision cross section (N2): 280.6 Å²
[3]; [M+Na]+
  collision cross section (N2): 281.2 Å²
[3]; [M-H]-
  collision cross section (N2): 265.2 Å²
[4]; [M-H]-
  collision cross section (N2): 265.7 Å²

## CC/C=C\C/C=C\C/C=C\C/C=C\CCCCC(=O)OC[C@H](COP(=O)(O)OCCN)OC(=O)CCCCCCCCC/C=C\C/C=C\CCCCC [PE(38:6)]
[2]; [M+K]+
  collision cross section (N2): 288.7 Å²
[2]; [M+Na]+
  collision cross section (N2): 285 Å²
[3]; [M+Na]+
  collision cross section (N2): 283.6 Å²
[3]; [M-H]-
  collision cross section (N2): 269.8 Å²
[4]; [M+H]+
  collision cross section (N2): 275.7 Å²
[4]; [M-H]-
  collision cross section (N2): 269.2 Å²

## CC/C=C\C/C=C\C/C=C\C/C=C\CCCCC(=O)OC[C@H](COP(=O)(O)OCCN)OC(=O)CCCCC/C=C\C/C=C\C/C=C\C/C=C\CCCCC [PE(40:8)]
[2]; [M+Na]+
  collision cross section (N2): 289.2 Å²
[3]; [M+Na]+
  collision cross section (N2): 287.3 Å²
[4]; [M+H]+
  collision cross section (N2): 280.7 Å²

## CCC(NC(C)C)C(O)c1ccc(O)c2[nH]c(=O)ccc12 (stereo not given) [Procaterol]
[1]
  collision cross section (N2): 168 Å²

## CC(C)N(C(=O)CCl)c1ccccc1 [Propachlor]
[1]
  collision cross section (N2): 142.07 Å²

## CCC(=O)c1ccc2c(c1)N(CCCN(C)C)c1ccccc1S2 [Propionylpromazine]
[1]
  collision cross section (N2): 182.8 Å²

## Ic2ccc1\N=C(\OCCC)N(C(=O)c1c2)CCC [Proquinazid]
[1]
  collision cross section (N2): 169.35 Å²

## Cc1cc(C)nc(Nc2ccccc2)n1 [Pyrimethanil]
[1]
  collision cross section (N2): 142.95 Å²

## CCOP(=S)(OCC)Oc1cnc2ccccc2n1 [Quinalphos]
[1]
  collision cross section (N2): 165.1 Å²

## CC(CCc1ccc(O)cc1)NCC(O)c1ccc(O)cc1 (stereo not given) [Ractopamine]
[1]
  collision cross section (N2): 168.9 Å²

## C[C@H](NCCc1ccc(O)cc1)[C@H](O)c1ccc(O)cc1 [Ritodrine]
[1]
  collision cross section (N2): 165.8 Å²

## Cn1c([N+](=O)[O-])cnc1COC(N)=O [Ronidazole]
[1]
  collision cross section (N2): 131.6 Å²

## C=C(C)C1Cc2c(ccc3c2OC2COc4cc(OC)c(OC)cc4C2C3=O)O1 (stereo not given) [Rotenone]
[1]
  collision cross section (N2): 195.01 Å²

## CC(C)(C)NCC(O)c1ccc(O)c(CO)c1 (stereo not given) [Salbutamol]
[1]
  collision cross section (N2): 158.3 Å²

## CCOC(=O)OC1=C(c2cc(C)ccc2C)C(=O)NC12CCC(OC)CC2 (stereo not given) [Spirotetramat]
[1]
  collision cross section (N2): 189.99 Å²

## C=C1C[C@@]23CC[C@H]4[C@@](C)(CCC[C@@]4(C)C(=O)O)[C@@H]2CC[C@]1(O)C3 [Steviol]
[1]
  collision cross section (N2): 173.38 Å²

## Nc1ccc(S(=O)(=O)Nc2ccc(Cl)nn2)cc1 [Sulfachloropyridazine]
[1]
  collision cross section (N2): 156.9 Å²

## Nc1ccc(S(=O)(=O)Nc2ncccn2)cc1 [Sulfadiazine]
[1]
  collision cross section (N2): 148.7 Å²

## Cc1cc(C)nc(NS(=O)(=O)c2ccc(N)cc2)n1 [Sulfadimidine]
[1]
  collision cross section (N2): 159.7 Å²

## COc1ncnc(NS(=O)(=O)c2ccc(N)cc2)c1OC [Sulfadoxine]
[1]
  collision cross section (N2): 166.6 Å²
